Calls of active or inactive are those of the source. No cut-off for these calls is given here.
Key:
Type in all cases: cell membranes
[1] = species on record: Rattus norvegicus; assay: Displacement of [3H]flumazenil from GABAA receptor in Wistar rat cortical membrane at 10 uM
[2] = Displacement of [3H]flumazenil from GABAA receptor in Wistar rat cortical membrane preincubated for 24 hrs
[3] = Displacement of [3H]flumazenil from GABAA receptor in Wistar rat cortical membrane
[4] = Displacement of [3H]flumazenil from GABAA receptor in Wistar rat cortical membrane preincubated for 15 mins

Ki [3] [nM]	SMILES	also measured
–	COc1cc(-c2ccc3ccccc3[o+]2)cc(OC)c1OC	Activity [1]: inactive
–	COc1ccc(C(=O)/C=C/c2cc(OC)ccc2O)cc1	Ki [2]: 28 nM
280	Oc1ccc(-c2ccc3ccc(O)cc3[o+]2)cc1	–
–	Oc1ccc(-c2ccc3cccc(O)c3[o+]2)cc1	Activity [1]: inactive
320	COc1ccc(-c2ccc3cc(O)ccc3[o+]2)cc1	–
140	COc1ccc(-c2ccc3cc(Br)ccc3[o+]2)cc1	Ki [4]: 66 nM; Ki [2]: 66 nM
160	COc1ccc2[o+]c(-c3ccc(O)cc3)ccc2c1	–
480	COc1ccc(-c2ccc3ccccc3[o+]2)cc1	–
7800	COc1ccc(-c2ccc3cc(OC)c(O)cc3[o+]2)cc1	–
1800	COc1ccc2ccc(-c3ccccc3)[o+]c2c1	–
–	COc1ccc(-c2ccc3ccccc3[o+]2)cc1OC	Activity [1]: inactive
–	Oc1ccc(-c2ccc3ccc(O)c(O)c3[o+]2)cc1	Activity [1]: inactive
260	Oc1ccc2ccc(-c3ccccc3)[o+]c2c1	–
60	COc1ccc(-c2ccc3cc(OC)ccc3[o+]2)cc1	Ki [4]: 18 nM; Ki [2]: 18 nM
180	COc1ccc2[o+]c(-c3ccccc3)ccc2c1	–
1200	COc1ccc(-c2ccc3ccc(OC)cc3[o+]2)cc1	–
–	COc1ccc2[o+]c(-c3ccc(OC)c(OC)c3)ccc2c1	Activity [1]: inactive
1500	Oc1ccc(-c2ccc3cc(O)ccc3[o+]2)cc1	–

From ChEMBL document CHEMBL1140041, “Flavylium salts as in vitro precursors of potent ligands to brain GABA-A receptors” (Bioorg Med Chem Lett, 2008)
